The record followed here is US20230299326A1, “REDOX FLOW BATTERY” (MITSUBISHI HEAVY INDUSTRIES, LTD., priority 2020, published 2023).

Data set [1] can be described thus: Solubility of the hydroquinone pentamer. As to conditions: per hydroquinone unit. It counts as physicochemical.
Data set [2] in a line: Cyclic voltammogram of the hydroquinone pentamer (redox potential). Format: physicochemical. As to conditions: glassy carbon working electrode, Ag/AgCl (3 M sodium chloride solution) reference, platinum wire counter electrode, sweep rate 25 mV/sec. The source says: A cyclic voltammogram of the hydroquinone pentamer thus obtained was obtained. The measurement was made using a 5-mm diameter glassy carbon as the working electrode, Ag/AgCl (3 M sodium chloride solution) as the reference electrode, and platinum wire as the counter electrode at a sweep rate of 25 mV/sec.

≈ marks a conversion by molar mass, not a printed value.

As to `Oc1cc2c(O)cc1Cc1cc(O)c(cc1O)Cc1cc(O)c(cc1O)Cc1cc(O)c(cc1O)Cc1cc(O)c(cc1O)C2` [hydroquinone pentamer], the concentration in solution in data set [1] (solubility) came to 1800 mM (≈ 1100 mg/mL). In data set [2], this molecule showed a redox potential of -0.75 V vs. SHE.
